Type in all cases: cell-based
Experiment [1] concerns HIV-1 isolate JR-FL in primary human fetal astrocytes. The experiment in a line: p24 ELISA, HIV replication in JR-FL infected astroglial cells. To be noted: for p24 pg/mL Day 5: Astroglia/JR-FL, 0.01 (μM) every 24 hours, culture medium 5 days after HIV infection, HIV control 22.83; for amount of p24 protein in culture medium from HIV infected cells in comparison to untreated HIV controls: summary statement for Tables 1 to 3 (astroglia and microglia, JR-FL and SF162). As to the method:
(§1) Purified primary human fetal astrocytes and microgial cells were prepared from 16 to 20 week old human fetal brain tissue by a modified procedure based on the methods of Cole and de Vellis^11, and Yong and Ante^13. Brain tissue was washed in ice-cold Hank's Balanced Salt Solution (HBSS) containing the antibiotics gentamycin and amphotericin B. Blood vessels and meninges were removed and the tissue was minced into small pieces. After mincing, the tissue was enzymatically dissociated by incubation in 0.05% trypsin and mechanically disrupted by passing several times over a 75 μm nylon mesh filter. The resulting single cell suspension was washed, pelleted and plated at a density of 2-10×10^6 cells per 162 cm^2 flask in DMEM:F12 containing 10% fetal calf serum, insulin, gentamycin, and L-glutamine. After 7-10 days of growth, microglial cells were isolated by placement on rotary shaker at 200 rpm in a 37° C. incubator overnight. The non-adherent cells were removed and allowed to attach to a new flask for 1 to 3 h. Following attachment, the cells were washed and refed with media containing 10% fetal calf serum, insulin, gentamycin, L-glutamine, and NI supplement. Astrocytes were subcultured from adherent cells in media containing 15% fetal calf serum, insulin, gentamycin, and L-glutamine and contaminating microglia were removed by repeated rotary shaking. Cultured astrocytic and microglial cells were plated at a density of 2.5×10^5 per well into 6 well plates for subsequent infection.
(§2) Brain derived primary HIV-1 isolates SF162 and JR-FL were cultured in human peripheral blood mononuclear cells (PBMC) essentially as described by Gartner and Popovic^12. PBMC were isolated from human buffy coat by fico gradient and plated at a density of 2.5×10^6 per ml in RPMI containing 10% fet calf serum and gentamycin. Cells were stimulated by the addition of 5 ug/ml phytohemagglutinin (PHA) for 48 h. After stimulation, cells were infected will either SF162 or JR-FL and cultured for 7 to 10 days until high titres of HIV-1 we detected in the supernatant by p24 ELISA assay. When viral production was optimal, the cells were pelleted, the supernatant containing HIV-1 was aliquoted and stored at −70° C. until use. P24 ELISA assay was performed on an aliquoted stock to determine the viral titre.
2.5×10^5 microglial or astrocytic cells were plated per well into 6-we plates. The next day, cells were washed and refed with fresh medium. 2×10^4 p2units of either SF 162 or JR-FL virus was added per well in a total of 1 ml of vir inoculum. In control experiments, the virus was not added. Cells were incubated with virus overnight at 37° C., washed extensively with PBS, and refed with […] fresh medium. Cultures were treated with IB-MECA or CI-IB-MECA at concentration of 0.01 μM every 24 hours. […]
(An ELISA detects its analyte on a solid surface through an enzyme-linked reagent.)

For experiment [2], the system named is HIV-1 isolate SF162 in primary human fetal astrocytes. The experiment is described as follows: p24 ELISA, HIV replication in SF162 infected astroglia. The settings on record: Astroglia/SF-162; 0.01 (μM) every 24 hours; culture medium 5 days after infection; HIV control 313.38. As to the method: as §1, with “Following attachment, the cells were washed and refed with media containing 10% fetal calf serum, insulin, gentamycin, L-glutamine, and NI supplement. Astrocytes were subcultured from adherent cells in media containing 15% fetal calf serum, insulin, gentamycin, and L-glutamine and contaminating microglia were removed by repeated rotary shaking. Cultured astrocytic and microglial cells were plated at a density of 2.5×10^5 per well into 6 well plates for subsequent infection.” left out
Brain derived primary HIV-1 isolates SF162 and JR-FL were cultured in human peripheral blood mononuclear cells (PBMC) essentially as described by Gartner and Popovic^12. […] After stimulation, cells were infected will either SF162 or JR-FL and cultured for 7 to 10 days until high titres of HIV-1 we detected in the supernatant by p24 ELISA assay. […]

Experiment [3] concerns HIV-1 isolate SF162 in primary human fetal microglia. The experiment in a line: p24 ELISA, HIV replication in SF162 infected microglia. To be noted: Microglia/SF; for p24 pg/mL Day 5 after infection: HIV control 267.99; for p24 pg/mL Day 10 after infection: HIV control 209.18. The protocol:
as §1, §2
2.5×10^5 microglial or astrocytic cells were plated per well into 6-we plates. The next day, cells were washed and refed with fresh medium. 2×10^4 p2units of either SF 162 or JR-FL virus was added per well in a total of 1 ml of vir inoculum. In control experiments, the virus was not added. Cells were incubated with virus overnight at 37° C., washed extensively with PBS, and refed with […] fresh medium. […] 500 μl of medium were removed at the indicated times following infection and stored at −70° C. for later analysis. Each time medium was removed, a volume amount of fresh medium was added. In control experiments IB-MECA and Cl-IB-MECA were omitted.
ELISA assay to detect the HIV-1 viral core protein, p24, was performed of 50 μl of the collected supernatant utilizing the commercially available p24 ELISA Kit (NEN/Dupont) according to the manufacturer's instructions.

With `CNC(=O)[C@H]1O[C@@H](n2cnc3c(NCc4cccc(I)c4)ncnc32)[C@H](O)[C@@H]1O` [IB-MECA, 1-deoxy-1-{6-[({3-iodophenyl}methyl)amino]-9H-purine-9-yl}-N-methyl-β-D-ribofuranuron-amide], the “p24 pg/mL Day 5” value in experiment [1] is on record as 3.02 pg/mL; in experiment [2], 137.58 pg/mL. Moreover, the “amount of p24 protein in culture medium from HIV infected cells in comparison to untreated HIV controls” value in experiment [1] was “significantly reduced”. Also, the “p24 pg/mL Day 5 after infection” value in experiment [3] (0.01 (μM)) was found to be 81.33 pg/mL; in experiment [3] (0.1) it was 82.29 pg/mL. For the same compound, the figures for the “p24 pg/mL Day 10 after infection” value in experiment [3] (0.01 (μM)) and in experiment [3] (0.1) were 62.79 pg/mL and 54.80 pg/mL, respectively.
As to `CNC(=O)[C@H]1O[C@@H](n2cnc3c(NCc4cccc(I)c4)nc(Cl)nc32)[C@H](O)[C@@H]1O` [Cl-IB-MECA], in experiment [1], the “p24 pg/mL Day 5” value amounted to 8.45 pg/mL and the “amount of p24 protein in culture medium from HIV infected cells in comparison to untreated HIV controls” value is “significantly reduced”. For the same compound, the “p24 pg/mL Day 5” value in experiment [2] worked out at 288.77 pg/mL. In experiment [3] (0.01 (μM)), the “p24 pg/mL Day 5 after infection” value amounted to 127.03 pg/mL and the “p24 pg/mL Day 10 after infection” value was found to be 111.05 pg/mL. For the same compound, in experiment [3] (0.1), the “p24 pg/mL Day 5 after infection” value stood at 10.81 pg/mL and the “p24 pg/mL Day 10 after infection” value stood at 80.37 pg/mL.

(Values after patent publication US7589075B2, “Use of an adenosine A3 receptor agonist for inhibition of viral replication” (Can-Fite Biopharma Ltd., priority 2001, dated 2009).)
